# Data as given in ChEMBL document CHEMBL2074154, “Modulation of the function of P-glycoprotein by estramustine” (J Natl Cancer Inst, 1994).
# Target: ATP-dependent translocase ABCB1 (Homo sapiens, UniProt P08183)
# Experiment: TP_TRANSPORTER: increase in Vinblastine intracellular accumulation (Vinblastine: 1 uM, Estramustine: 50 uM) in SKVLB 1 cells
# Type: functional, cell-based
# Conditions: skvlb 1, 50 µM
# ATP-dependent translocase ABCB1, sequence (P08183 whole entry): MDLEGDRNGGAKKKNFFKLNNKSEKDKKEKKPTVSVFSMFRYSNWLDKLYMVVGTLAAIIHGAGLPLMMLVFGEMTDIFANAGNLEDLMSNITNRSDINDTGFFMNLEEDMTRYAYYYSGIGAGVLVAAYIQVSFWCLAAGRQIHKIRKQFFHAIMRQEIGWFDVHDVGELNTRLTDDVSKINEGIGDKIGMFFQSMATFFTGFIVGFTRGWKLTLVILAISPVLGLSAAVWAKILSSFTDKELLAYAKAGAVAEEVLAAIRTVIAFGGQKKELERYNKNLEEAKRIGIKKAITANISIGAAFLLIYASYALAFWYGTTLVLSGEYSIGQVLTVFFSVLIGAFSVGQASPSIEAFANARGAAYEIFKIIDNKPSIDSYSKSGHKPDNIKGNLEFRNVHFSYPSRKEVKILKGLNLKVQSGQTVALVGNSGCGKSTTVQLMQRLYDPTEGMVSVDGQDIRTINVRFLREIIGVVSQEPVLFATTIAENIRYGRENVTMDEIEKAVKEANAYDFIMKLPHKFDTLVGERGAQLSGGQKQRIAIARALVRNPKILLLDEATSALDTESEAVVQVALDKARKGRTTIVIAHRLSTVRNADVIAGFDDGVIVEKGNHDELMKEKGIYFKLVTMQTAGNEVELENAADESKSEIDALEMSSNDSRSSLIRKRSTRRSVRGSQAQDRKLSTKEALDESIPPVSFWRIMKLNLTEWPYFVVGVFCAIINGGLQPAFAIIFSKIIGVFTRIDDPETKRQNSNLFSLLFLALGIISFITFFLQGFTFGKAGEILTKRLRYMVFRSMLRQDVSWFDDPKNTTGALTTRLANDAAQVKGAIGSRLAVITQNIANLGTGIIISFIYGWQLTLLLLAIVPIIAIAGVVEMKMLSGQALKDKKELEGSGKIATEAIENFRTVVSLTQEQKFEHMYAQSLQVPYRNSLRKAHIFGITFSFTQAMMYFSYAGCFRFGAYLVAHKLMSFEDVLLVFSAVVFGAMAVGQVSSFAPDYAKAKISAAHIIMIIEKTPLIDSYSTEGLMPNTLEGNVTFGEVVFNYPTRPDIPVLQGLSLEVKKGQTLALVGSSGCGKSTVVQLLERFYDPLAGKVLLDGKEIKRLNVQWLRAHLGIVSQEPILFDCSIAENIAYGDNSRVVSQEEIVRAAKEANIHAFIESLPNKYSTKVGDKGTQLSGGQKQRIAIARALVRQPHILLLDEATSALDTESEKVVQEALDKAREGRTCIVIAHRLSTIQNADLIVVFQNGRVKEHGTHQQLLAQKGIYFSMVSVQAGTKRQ
smiles,measurement,value
C[C@]12CC[C@@H]3c4ccc(OC(=O)N(CCCl)CCCl)cc4CC[C@H]3[C@@H]1CC[C@@H]2O [ESTRAMUSTINE],Activity,inhibitor [+]
